{
  "source": "patent US20090130212A1",
  "about": "“COMPOSITION AND IMPROVED METHOD FOR PREPARATION OF SMALL PARTICLES” (PHYSICAL PHARMACEUTICA, LLC, priority 2006, published 2009)",
  "type_in_all_cases": "physicochemical",
  "key": {"[1]": {"experiment": "pKa / ionization of ibuprofen", "details": "pH of 2"}, "[2]": {"experiment": "Dissolution of ibuprofen in 0.01N HCl, microdialysis sampling and HPLC (Example 3)", "details": "50 ml 0.01N HCl pH 2, 25° C", "method": "The remaining ether was removed by evaporation at room temperature in a vacuum oven at less than 10 torr, for 2 hours."}, "[3]": {"experiment": "Aqueous solubility of ibuprofen", "details": "pH 2, in 50 ml"}},
  "data": [
    {"smiles": "CC(C)Cc1ccc(C(C)C(=O)O)cc1", "note": "(centres unmarked) [pure ibuprofen, ibuprofen]", "values": [
      {"measurement": "fraction unionized", "setting": "[1]", "result": "more than 99%"},
      {"measurement": "amount of ibuprofen dissolved", "setting": "[2]; after five minutes", "result": "approximately 790 mcg"},
      {"measurement": "amount of ibuprofen dissolved", "setting": "[2]; after one minute", "result": "approximately 190 mcg"},
      {"measurement": "amount of ibuprofen dissolved", "setting": "[2]; after two minutes", "result": "approximately 350 mcg"},
      {"measurement": "amount dissolved corresponding to solubility", "setting": "[3]", "result": 4000, "unit": "µg"}
    ]}
  ]
}
